Laboratory results reported in the NIST ThermoML archive (doi:10.1016/j.jct.2006.03.014).
Numbers after ± are expanded uncertainties.

How the values were obtained:
[1] = 101 kPa, Liquid; for viscosity: Capillary tube (Ostwald / Ubbelohde) method; for mass density: Pycnometric method
[2] = refractive index (Na D-line) (dimensionless); conditions: 298.15 K; 101.33 kPa; Liquid; Standard Abbe refractometry
[3] = xn = mol fraction of the nth substance listed; conditions: 101 kPa, Liquid, x2 = 0; for viscosity: Capillary tube (Ostwald / Ubbelohde) method; for mass density: Pycnometric method

## CC1OC(C)OC(C)O1 (stereo not given) [2,4,6-trimethyl-1,3,5-trioxane]
[1]; 298.15 K
  viscosity: 1.107 ± 0.015 mPa·s
  mass density: 988.4 ± 1.3 kg/m3
[1]; 303.15 K
  viscosity: 1.001 ± 0.014 mPa·s
  mass density: 982.6 ± 1.3 kg/m3
[1]; 308.15 K
  viscosity: 0.907 ± 0.013 mPa·s
  mass density: 976.4 ± 1.4 kg/m3

## CCCCOC(C)=O [butyl ethanoate]
[1]; 298.15 K
  viscosity: 0.685 ± 0.01 mPa·s
  mass density: 876.4 ± 1.1 kg/m3
[1]; 303.15 K
  viscosity: 0.636 ± 0.01 mPa·s
  mass density: 871.3 ± 1.1 kg/m3
[1]; 308.15 K
  viscosity: 0.579 ± 0.009 mPa·s
  mass density: 866.2 ± 1.1 kg/m3
[2]
  refractive index: 1.3918 ± 0.0009

## CCCCOC(C)=O [butyl ethanoate] + CC1OC(C)OC(C)O1
[3]; 298.15 K
  viscosity: 0.685 ± 0.01 mPa·s
  mass density: 876.4 ± 1.1 kg/m3
[3]; 303.15 K
  viscosity: 0.636 ± 0.01 mPa·s
  mass density: 871.3 ± 1.1 kg/m3
[3]; 308.15 K
  viscosity: 0.579 ± 0.009 mPa·s
  mass density: 866.2 ± 1.1 kg/m3

## CCOC(C)=O [ethyl acetate]
[1]; 298.15 K
  viscosity: 0.43 ± 0.008 mPa·s
  mass density: 893.8 ± 1.2 kg/m3
[1]; 303.15 K
  viscosity: 0.401 ± 0.008 mPa·s
  mass density: 887.6 ± 1.2 kg/m3
[1]; 308.15 K
  viscosity: 0.387 ± 0.008 mPa·s
  mass density: 881.2 ± 1.2 kg/m3
[2]
  refractive index: 1.37 ± 0.0009

## CCOC(C)=O [ethyl acetate] + CC1OC(C)OC(C)O1
[3]; 298.15 K
  viscosity: 0.43 ± 0.008 mPa·s
  mass density: 893.8 ± 1.2 kg/m3
[3]; 303.15 K
  viscosity: 0.401 ± 0.008 mPa·s
  mass density: 887.6 ± 1.2 kg/m3
[3]; 308.15 K
  viscosity: 0.387 ± 0.008 mPa·s
  mass density: 881.2 ± 1.2 kg/m3

## COC(C)=O [methyl ethanoate]
[1]; 298.15 K
  viscosity: 0.367 ± 0.008 mPa·s
  mass density: 926.7 ± 1.3 kg/m3
[1]; 303.15 K
  viscosity: 0.351 ± 0.007 mPa·s
  mass density: 919.7 ± 1.2 kg/m3
[1]; 308.15 K
  viscosity: 0.338 ± 0.007 mPa·s
  mass density: 916.2 ± 1 kg/m3
[2]
  refractive index: 1.3585 ± 0.0009

## COC(C)=O [methyl ethanoate] + CC1OC(C)OC(C)O1
[3]; 298.15 K
  viscosity: 0.367 ± 0.008 mPa·s
  mass density: 926.7 ± 1.3 kg/m3
[3]; 303.15 K
  viscosity: 0.351 ± 0.007 mPa·s
  mass density: 919.7 ± 1.2 kg/m3
[3]; 308.15 K
  viscosity: 0.338 ± 0.007 mPa·s
  mass density: 916.2 ± 1 kg/m3
